Data reported in patent US20080299140A1, “Immunogenic Composition and Peptide Sequences for Prevention and Treatment of an Hsv Condition” (priority 2002, published 2008).
Numbering of substitutions follows the chain as printed. Where two headings read alike, the source gives them in different places.

Columns and labels:
[1] = target: T1, DR11=HLA-DR(α1*0101,α1*1101) (Homo sapiens, UniProt P01903+P01911, A100R/A169T/A87E/I96F/K41T/L162R/M171V/P40S/Q125H/Q178H/Q39Y/Q99D/R42S/S66Y/T262R/V115G/W38E); test: biochemical; type: binding
T1 construct: endogenous in cells; host or cells: SWEIG (EBV homozygous B cell line)

[2] = target: T2, DP402 DP (α1*0101, α1*0402) (Homo sapiens, UniProt P04440+P20036, A65V/A84D/A85E/L207M); test: biochemical; type: binding
T2 sequence (P20036 29-260): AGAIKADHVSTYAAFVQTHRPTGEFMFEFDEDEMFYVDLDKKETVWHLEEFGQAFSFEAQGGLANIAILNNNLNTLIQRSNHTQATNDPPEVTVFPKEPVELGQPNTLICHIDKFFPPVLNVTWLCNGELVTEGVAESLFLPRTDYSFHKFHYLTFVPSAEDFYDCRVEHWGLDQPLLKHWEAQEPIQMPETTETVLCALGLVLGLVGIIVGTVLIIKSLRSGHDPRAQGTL
T2 sequence (P04440 30-258 A65V/A84D/A85E): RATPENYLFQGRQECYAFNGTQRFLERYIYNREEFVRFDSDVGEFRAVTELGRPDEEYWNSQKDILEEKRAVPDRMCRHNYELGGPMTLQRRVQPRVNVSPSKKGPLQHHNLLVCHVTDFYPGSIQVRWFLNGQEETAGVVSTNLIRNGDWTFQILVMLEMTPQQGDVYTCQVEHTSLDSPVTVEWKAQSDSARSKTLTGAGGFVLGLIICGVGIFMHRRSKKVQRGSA

[3] = target: T3, DRB3=HLA-DR(α1*0101,α3*0101) (Homo sapiens, UniProt P01903+P79483); test: HLA-DR specific binding assay, DRB3 (DR52)
T3 construct: endogenous in cells; host or cells: STEILIN or 0206AD (both typed DRB3*0101)
T3 sequence (P79483 30-266, other chains not shown): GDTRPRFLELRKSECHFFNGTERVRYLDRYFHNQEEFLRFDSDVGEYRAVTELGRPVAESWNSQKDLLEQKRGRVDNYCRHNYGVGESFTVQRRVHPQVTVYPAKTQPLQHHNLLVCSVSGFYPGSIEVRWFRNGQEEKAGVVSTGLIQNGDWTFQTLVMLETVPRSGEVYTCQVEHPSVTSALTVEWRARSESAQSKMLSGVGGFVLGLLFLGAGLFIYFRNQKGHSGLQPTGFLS

[4] = target: T4, DR3=HLA-DR(α1*0101,α1*0301) (Homo sapiens, UniProt P01903+P01911, A100K/A102G/A103R/A169T/F55Y/I96L/K41T/L162R/M171V/P40S/Q125H/Q178H/Q39Y/R42S/S66N/T106N/T262R/W38E/Y61H); test: HLA-DR specific binding assay, DR3
T4 construct: endogenous in cells; host or cells: STEILIN (EBV homozygous B cell line)

[5] = target: T5, DP401=HLA-DP(α1*0101,α1*0401) (Homo sapiens, UniProt P04440+P20036); test: biochemical; type: binding
T5 sequence (P20036 32-260 limits assumed): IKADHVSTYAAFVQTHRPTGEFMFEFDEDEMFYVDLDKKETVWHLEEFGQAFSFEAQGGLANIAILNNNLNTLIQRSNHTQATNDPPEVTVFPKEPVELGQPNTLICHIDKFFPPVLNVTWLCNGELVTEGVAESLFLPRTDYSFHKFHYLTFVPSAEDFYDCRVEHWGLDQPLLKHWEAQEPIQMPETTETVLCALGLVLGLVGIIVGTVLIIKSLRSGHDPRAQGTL
T5 sequence (P04440 30-258): T2 sequence (P04440 30-258 A65V/A84D/A85E) with V36A, D55A, E56A

[6] = target: T6, DRB5=HLA-DR(α1*0101,α5*0101) (Homo sapiens, UniProt P01903+Q30154); test: biochemical; type: binding; conditions: Table V; […]; read-out: IC50 DRB5
T6 construct: endogenous in cells; host or cells: EBV homozygous human B cell line
T6 sequence (Q30154 30-266, other chains not shown): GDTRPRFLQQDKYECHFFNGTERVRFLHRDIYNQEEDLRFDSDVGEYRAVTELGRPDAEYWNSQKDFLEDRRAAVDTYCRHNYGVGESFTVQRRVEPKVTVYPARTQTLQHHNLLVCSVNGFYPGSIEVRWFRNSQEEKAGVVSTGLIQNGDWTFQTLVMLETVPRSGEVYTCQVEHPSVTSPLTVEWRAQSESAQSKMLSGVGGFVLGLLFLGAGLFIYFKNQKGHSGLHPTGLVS

[7] = target: T7, DR7=HLA-DR(α1*0101,α1*0701) (Homo sapiens, UniProt P01903+P01911, A100R/A102G/A103Q/D57E/D86V/E43K/F76Y/K127E/L162R/M171V/P40G/Q125H/Q99D/R33Q/R42Y/R54Q/S133A/S66F/T210M/V115G/Y107V/Y59L/Y89S); test: HLA-DR specific binding assay, DR7
T7 construct: endogenous in cells; host or cells: EBV homozygous human B cell line

[8] = target: T8, DR4=HLA-DR(α1*0101,α1*0401) (Homo sapiens, UniProt P01903+P01911, A100K/A169T/F76Y/I96L/K127E/L162R/M171V/N62H/P40V/Q125Y/R42H/S133A/S149N/S66Y/V115G/V209L/W38E); test: biochemical; type: binding
T8 construct: endogenous in cells; host or cells: BOLETH (EBV homozygous B cell line)

[9] = target: T9, DR1=HLA-DR(α1*0101,α1*0101) (Homo sapiens, UniProt P01903+P01911, A100R/D57E/F55L/F60I/F76Y/I96L/L162R/M171V/P40L/Q125E/R42F/V115G/Y59C); test: biochemical; type: binding; conditions: […]
T9 construct: endogenous in cells; host or cells: EBV homozygous human B cell line

[10] = target: T10, DRB4=HLA-DR(α1*0101,α4*0101) (Homo sapiens, UniProt P01903+P13762, G164S); test: HLA-DR specific binding assay, DRB4 (DR53)
T10 construct: endogenous in cells

[11] = target: T11, DR13=HLA-DR(α1*0101,α1*1301) (Homo sapiens, UniProt P01903+P01911, A100E/A169T/K41T/L162R/M171V/P40S/Q125H/Q178H/Q39Y/Q99D/R42S/S66N/T262R/W38E/Y61H); test: HLA-DR specific binding assay, DR13
T11 construct: endogenous in cells; host or cells: 0206AD (EBV homozygous B cell line)

[12] = target: T12, DR15=HLA-DR(α1*0101,α1*1501) (Homo sapiens, UniProt P01903+P01911); test: HLA-DR specific binding assay, DR15
T12 construct: endogenous in cells; host or cells: EBV homozygous human B cell line

[13] = Table V, […], read-out: IC50 DR11

Compound	IC50 ([1]; Class II MHC allele DR11, read-out: IC50, DR11) [nM]	IC50 [1, 13] [nM]	IC50 ([2]; Table V, […]) [nM]	IC50 ([3]; IC50 DRB3, Table V, […]) [nM]	IC50 ([4]; IC50 DR3, Table V, […]) [nM]	IC50 ([5]; Table V, […]) [nM]	IC50 [6] [nM]	IC50 [7] [nM]	IC50 ([8]; IC50 DR4) [nM]	IC50 ([9]; Table V, read-out: IC50 DR1) [nM]	IC50 [10] [nM]	IC50 ([2]; Class II MHC allele DP402) [nM]	IC50 ([3]; IC50, DRD3, Class II MHC allele DRD3 (so in the source)) [nM]	IC50 [11] [nM]	IC50 [12] [nM]	IC50 ([8]; Table V, […], read-out: IC50 DR4) [nM]	IC50 ([9]; Class II MHC allele DR1, read-out: IC50, DR1) [nM]	IC50 ([4]; IC50, DR3, Class II MHC allele DR3) [nM]	IC50 ([5]; Class II MHC allele DP401) [nM]
CC[C@H](C)[C@H](NC(=O)[C@H](CCC(N)=O)NC(=O)[C@@H]1CCCN1C(=O)[C@H](C)N)C(=O)N[C@H](C(=O)N[C@@H](CCCNC(=N)N)C(=O)NCC(=O)N[C@@H](C)C(=O)N[C@@H](CO)C(=O)N[C@@H](CCC(=O)O)C(=O)N[C@@H](CC(=O)O)C(=O)N[C@H](C(=O)N[C@@H](CCCNC(=N)N)C(=O)N[C@@H](CCCCN)C(=O)N[C@@H](CCC(N)=O)C(=O)N1CCC[C@H]1C(=O)N[C@@H](Cc1ccc(O)cc1)C(=O)N[C@@H](CC(N)=O)C(=O)N[C@@H](CC(C)C)C(=O)N[C@H](C(=O)N[C@H](C(=O)N[C@@H](C)C(=O)N[C@@H](Cc1c[nH]c2ccccc12)C(=O)N[C@@H](Cc1ccccc1)C(=O)N[C@@H](CCCNC(=N)N)C(=O)N[C@@H](CCSC)C(=O)NCC(=O)NCC(=O)O)[C@@H](C)CC)[C@@H](C)O)C(C)C)C(C)C [HSV 32]	300	300	381	> 100000	2350	1450	1	4	–	–	–	–	–	–	–	–	–	–	–
CC[C@H](C)[C@H](NC(=O)[C@H](Cc1c[nH]cn1)NC(=O)[C@H](Cc1ccc(O)cc1)NC(=O)[C@@H](NC(=O)[C@H](CCCNC(=N)N)NC(=O)[C@H](CCCNC(=N)N)NC(=O)[C@@H](NC(=O)CNC(=O)[C@@H]1CCCN1C(=O)[C@@H]1CCCN1C(=O)[C@H](CC(=O)O)NC(=O)[C@@H](NC(=O)[C@H](CC(C)C)NC(=O)[C@H](CCC(N)=O)NC(=O)[C@H](CC(=O)O)NC(=O)[C@H](CC(C)C)NC(=O)[C@@H](NC(=O)[C@@H]1CCCN1C(=O)[C@H](CC(C)C)NC(=O)[C@@H](N)CC(=O)O)C(C)C)[C@@H](C)O)C(C)C)C(C)C)C(=O)N[C@@H](CCC(N)=O)C(=O)N[C@@H](C)C(=O)NCC(=O)N[C@@H](CC(C)C)C(=O)N1CCC[C@H]1C(=O)N[C@@H](CC(=O)O)C(=O)N1CCC[C@H]1C(=O)N[C@@H](Cc1ccccc1)C(=O)N[C@@H](CCC(N)=O)C(=O)N1CCC[C@H]1C(=O)N1CCC[C@H]1C(=O)N[C@@H](CO)C(=O)O [HSV 31]	–	–	47000	5980	2490	62000	58	224	63	3	397	49000	6980	> 100000	787	–	–	–	–
CSCC[C@H](NC(=O)[C@H](CCCCN)NC(=O)[C@H](CC(C)C)NC(=O)[C@H](CO)NC(=O)[C@H](C)NC(=O)[C@H](CC(=O)O)NC(=O)[C@@H](NC(=O)[C@H](CC(C)C)NC(=O)[C@H](C)NC(=O)[C@H](Cc1ccc(O)cc1)NC(=O)[C@H](CCCCN)NC(=O)[C@@H](N)CO)C(C)C)C(=O)N[C@@H](C)C(=O)N[C@@H](CC(=O)O)C(=O)N1CCC[C@H]1C(=O)N[C@@H](CC(N)=O)C(=O)N[C@@H](CCCNC(=N)N)C(=O)N[C@@H](Cc1ccccc1)C(=O)N[C@@H](CCCNC(=N)N)C(=O)NCC(=O)N[C@@H](CCCCN)C(=O)N[C@@H](CC(=O)O)C(=O)N[C@@H](CC(C)C)C(=O)N1CCC[C@H]1C(=O)N[C@H](C(=O)N[C@@H](CC(C)C)C(=O)N[C@@H](CC(=O)O)C(=O)N[C@@H](CCC(N)=O)C(=O)N[C@@H](CC(C)C)C(=O)O)C(C)C [HSV 30]	–	648	3800	535	78	17900	7	374	–	–	> 100000	–	–	> 100000	11000	58	58	79	17700
